Source: PubChem BioAssay AID1259407 (Chemical Carcinogenesis Research Information System (CCRIS), 2018)
The source made the active and inactive calls. The rule behind the calls is not given here.

Tested on: CCRIS mutagenicity, Ames/micronucleus/aberration tests
Assay: CCRIS mutagenicity studies
[1] = Test System: AMES SALMONELLA TYPHIMURIUM, Strain/Indicator: TA98, Metabolic Activation: NONE, Method: PREINCUBATION
[2] = Test System: AMES SALMONELLA TYPHIMURIUM, Strain/Indicator: TA100, Metabolic Activation: NONE, Method: STANDARD PLATE
[3] = Test System: AMES SALMONELLA TYPHIMURIUM, Strain/Indicator: TA98, Metabolic Activation: NONE, Method: STANDARD PLATE

CNc1ccc2ncc(C)nc2c1C
mutagenic call [1]: inactive; negative | mutagenic call (Test System: AMES SALMONELLA TYPHIMURIUM, Strain/Indicator: TA98, Metabolic Activation: RAT, LIVER, S-9, PCB, Method: PREINCUBATION): active; positive | mutagenic call (Test System: AMES SALMONELLA TYPHIMURIUM, Strain/Indicator: TA100, Metabolic Activation: NONE, Method: PREINCUBATION): inactive; negative | mutagenic call (Test System: AMES SALMONELLA TYPHIMURIUM, Strain/Indicator: TA100, Metabolic Activation: RAT, LIVER, S-9, PCB, Method: PREINCUBATION): active; positive

CC(C)(C)OC(=O)C=Cc1ccc([N+](=O)[O-])o1
mutagenic call [1]: active; positive

O=C1OCC(CCl)=C1Cl
mutagenic call [2]: active; positive

O[C@@H]([C@H](O)[C@H](O)CBr)[C@H](O)CBr
mutagenic call [3]: inactive; negative | mutagenic call [2]: inactive; negative | mutagenic call (Test System: AMES SALMONELLA TYPHIMURIUM, Strain/Indicator: TA100, Metabolic Activation: S-9, Method: STANDARD PLATE): active; positive | mutagenic call (Test System: E. COLI, Strain/Indicator: WP2 (HCR), Metabolic Activation: NONE, Method: STANDARD PLATE): inactive; negative | mutagenic call (Test System: E. COLI, Strain/Indicator: WP2 (HCR), Metabolic Activation: S-9, Method: STANDARD PLATE): active; positive

CCC(=O)N(c1ccc(Cl)c(Cl)c1)[C@@H]1CCC[C@H]1N(C)C
mutagenic call [3]: inactive; negative | mutagenic call (Test System: AMES SALMONELLA TYPHIMURIUM, Strain/Indicator: TA98, Metabolic Activation: RAT, LIVER, S-9, AROCLOR 1254, Method: STANDARD PLATE): inactive; negative | mutagenic call [2]: inactive; negative | mutagenic call (Test System: AMES SALMONELLA TYPHIMURIUM, Strain/Indicator: TA100, Metabolic Activation: RAT, LIVER, S-9, AROCLOR 1254, Method: STANDARD PLATE): inactive; negative | mutagenic call (Test System: AMES SALMONELLA TYPHIMURIUM, Strain/Indicator: TA1535, Metabolic Activation: NONE, Method: STANDARD PLATE): inactive; negative | mutagenic call (Test System: AMES SALMONELLA TYPHIMURIUM, Strain/Indicator: TA1535, Metabolic Activation: RAT, LIVER, S-9, AROCLOR 1254, Method: STANDARD PLATE): inactive; negative | mutagenic call (Test System: AMES SALMONELLA TYPHIMURIUM, Strain/Indicator: TA1537, Metabolic Activation: NONE, Method: STANDARD PLATE): inactive; negative | mutagenic call (Test System: AMES SALMONELLA TYPHIMURIUM, Strain/Indicator: TA1537, Metabolic Activation: RAT, LIVER, S-9, AROCLOR 1254, Method: STANDARD PLATE): inactive; negative | mutagenic call (Test System: AMES SALMONELLA TYPHIMURIUM, Strain/Indicator: TA1538, Metabolic Activation: NONE, Method: STANDARD PLATE): inactive; negative | mutagenic call (Test System: AMES SALMONELLA TYPHIMURIUM, Strain/Indicator: TA1538, Metabolic Activation: RAT, LIVER, S-9, AROCLOR 1254, Method: STANDARD PLATE): inactive; negative | mutagenic call (Test System: CHINESE HAMSTER OVARY, Strain/Indicator: CHO-K1-BH4 (HGPRT), Metabolic Activation: NONE): inactive; negative | mutagenic call (Test System: CHINESE HAMSTER V-79, Strain/Indicator: V-79/6-THIOGUANINE, Metabolic Activation: NONE): inactive; negative | mutagenic call (Test System: CHINESE HAMSTER V-79, Strain/Indicator: V-79/6-THIOGUANINE, Metabolic Activation: RAT, LIVER, S-9, AROCLOR 1254): inactive; negative | mutagenic call (Test System: UDS RODENT HEPATOCYTES, Strain/Indicator: THY INCORP, Metabolic Activation: NONE): inactive; negative

CC(=O)Nc1ccc(Oc2ccccc2)cc1
mutagenic call [2]: inactive; negative | mutagenic call (Test System: AMES SALMONELLA TYPHIMURIUM, Strain/Indicator: TA100, Metabolic Activation: RAT, LIVER, S-9, KANECLOR 500, Method: STANDARD PLATE): active; positive

C/C=C\C1=CC(=O)[C@]23C[C@H]2C(C)(C)O[C@]3(O)C1=O
mutagenic call (Test System: AMES SALMONELLA TYPHIMURIUM, Strain/Indicator: TA97, Metabolic Activation: NONE): inactive; negative | mutagenic call (Test System: AMES SALMONELLA TYPHIMURIUM, Strain/Indicator: TA98, Metabolic Activation: NONE): inactive; negative | mutagenic call (Test System: AMES SALMONELLA TYPHIMURIUM, Strain/Indicator: TA100, Metabolic Activation: NONE): active; positive | mutagenic call (Test System: AMES SALMONELLA TYPHIMURIUM, Strain/Indicator: TA102, Metabolic Activation: NONE): active; positive

CCCN(CCCO)N=O
mutagenic call (Test System: CHINESE HAMSTER V-79, Strain/Indicator: V-79/OUABAIN, Metabolic Activation: HAMSTER, HEPATOCYTES, Method: CELL-MEDIATED): inactive; negative
